Measurements: patent US8187876B2, “Expansion of stem/progenitor cells by inhibition of enzymatic reactions catalyzed by the Sir2 family of enzymes” (Gamida Cell Ltd., priority 2004, dated 2012)

Columns and labels:
Assay type in all cases: cell-based, human
[1] = system: CD34+ cells; assay: Assay for Colony Forming Units (CFUc) in semi-solid medium; conditions: 200 mM Splitomicin for first 3 weeks; week 5; colonies scored after 14 days
Method: Assay for Colony Forming Units (CFU)—Cells were cloned in semi-solid, methylcellulose-containing medium supplemented with 2 IU/mL erythropoietin (Eprex, Cilag AG Int., Switzerland), stem cell factor and IL-3, both at 20 ng/mL, G-CSF and GM-CSF, both at 10 ng/mL (all from Perpo Tech). Cultures were incubated for 14 days at 37° C. in humidified atmosphere of 5% CO2 in air.
Cell culturing—Cell culturing was effected was described above. Specifically, cultures were initiated with a total of 1.2×10^5 CD34+ cells in cytokine-supplemented medium, with or without (control) […] Splitomicin. From week 3 and on all cultures were supplemented with cytokines only. On week 5 cells were enumerated, numbers of CFUc were determined and CD34+ cells were re-isolated from 10 ml cultures, counted and accumulative numbers per culture were calculated.

[2] = system: CD34+ cells; assay: Two phase culture system: long-term expansion of CD34+ cell cultures (3-week treatment phase, then cytokines only); conditions: 200 mM Splitomicin for first 3 weeks
Method: Two phase culture system—Purified CD34+ cells were cultured in culture bags (American Fluoroseal Co. Gaithersburg, Md., USA) at a concentration of 1×10^4 cells/ml in MEMα/10% FCS containing the following human recombinant cytokines: Thrombopoietin (TPO), interleukin-6 (IL-6), FLT-3 ligand and stem cell factor (SCF), each at a final concentration of 50 ng/ml (Perpo Tech, Inc., Rocky Hill, N.J., USA), with or without Nicotinamide or Sirtinol or Splitomicin and incubated at 37° C. in a humidified atmosphere of 5% CO2 in air. Until week 3, the cultures were topped weekly with the same volume of fresh medium, Nicotinamide or Sirtinol or Splitomicin and growth factors. From week three and up to the termination of the experiments the cultures were weekly demi-depopulated and supplemented with cytokines only. Cells were counted following staining with trypan blue. At various time points, harvested cells were used to assay the content of colony forming units in culture (CFUc), enumeration of CD34+ cells following re-selection and immunophenotype analysis. Cell morphology was determined on cytospin (Shandon). […] On week 5 cells were enumerated, numbers of CFUc were determined and CD34+ cells were re-isolated from 10 ml cultures, counted and accumulative numbers per culture were calculated.

[3] = system: CD34+ cells; assay: FACS immunophenotyping of cultured/re-selected CD34+ cells for stem/early progenitor cells
Method: Immunophenotyping—For immuno-phenotyping, cells were harvested, washed with phosphate buffered saline (PBS), containing 1% BSA and 0.1% sodium azide, and stained by incubation (at 4° C. for 60 min) with phycoerythrin (PE)-conjugated anti CD38 (Immunoquality Products, The Netherlands), flourescein isothiocyanate (FITC)-conjugated anti CD34 (Miltenyi Biotec) both at 5 μl per 50 μl cell suspension. The cells were then washed with the same buffer and analyzed, using FACS-calibur flow cytometer (Becton-Dickinson, Immunofluorometry systems, Mountain View, Calif.). Cells were passed at a rate of about 1000 cells/second, using saline as the sheath fluid. A 488 nm argon laser beam served as the light source for excitation. Emission of ten thousand cells was measured using logarithmic amplification and calculated using the cellQuest software. Background noise was determined using isotype control stained cells. Arithmetic Mean Fluorescence Channel (MFC) of the negative and positive populations and the stained cells to noise (S/N) ratio were calculated.
The highly purified, re-selected CD34+ cell fraction from a three week culture was FACS analyzed for stem/early progenitor cells: CD34+CD38− (FIG. 3), CD34+Lin−(CD3, 4, 19, 38, 33, 14 and 15 minus, FIG. 4) as well as for the percentages of CD38-HLA-DR minus cells (FIG. 5). […] For example, at 5 uM nicotinamide the percentages of CD34+Lin− cells were 4.11 whereas in control cultures only 0.02%, the percentages of CD34+CD38− cells were 34.6 in nicotinamide cultures and only 0.67 in control.
The CD34+CD38− cells are shown in the upper left part of the plot. FIG. 6b, the cells were stained with CD34(PE) and Lin(38, 33, 4, 3, 15, 14, 19, 61) (FITC). The CD34+Lin− cells are shown in the upper left part of the plot. FIG. 6c, the cells were stained for 34PE and HLA-DR and CD38 FITC. The CD34+/CD38− HLA-DR− cells are shown in the upper left part of the plot.

[4] = system: CD34+ cells; assay: Ex vivo expansion of CD34+ cell cultures, three weeks, CD34+ cells re-selected and enumerated; conditions: 5 μM nicotine amide; cytokines SCF, TPO, FLt3, IL-6, IL-3; only cytokine treated cultures 35×10^4
Method: Sample collection and purification—Cells were obtained from umbilical cord blood (CB) after a normal full-term delivery (informed consent was given). Samples were collected and processed within 12 hours postpartum. Blood was mixed with 3% Gelatin (Sigma, St. Louis, Mo.) and let sedimented for 30 minutes to remove most red blood cells (RBC). The leukocyte-rich fraction was harvested and layered on Ficoll-Hypaque gradient (1.077 g/mL; Sigma), and centrifuged at 400 g for 30 minutes. […]
Purification of CDD133+ and CD34+ cells—To purify CDD133+ or CD34^+ cells, the mononuclear cell fraction was subjected to two cycles of immuno-magnetic separation using the “MiniMACS or Clinimax CD34 progenitor cell isolation kit” (Miltenyi Biotec, Aubun, Calif.) following the manufacturer's recommendations. The purity of the CD34^+ population obtained ranged from 95% to 98% as evaluated by flow cytometry (see below). […]
At weekly intervals, cell cultures were semi-depopulated and supplemented with fresh medium, serum and cytokines. At various time points, cells were harvested, counted following staining with trypan blue, and cell morphology was determined on cytospin (Shandon, UK)-prepared smears stained with May-Grunwald/Giemsa solutions. […]

SMILES	colony formation (CFU analysis), self-renewal potential [1]	increase in CD34+ cells ([2]; CD34+ cells re-isolated on week 5)	total cell expansion vs cytokine-only control ([2]; counted on week 5)	CD34+/CD38− population shift in FACS dot plot ([3]; 75 mM splitomicin)	CD34+ cells re-selected after three week expansion [4]	percentages of CD34+CD38− cells in re-selected CD34+ fraction ([3]; 5 uM nicotinamide, three week culture, control 0.67) [%]	percentages of CD34+Lin− cells in re-selected CD34+ fraction ([3]; 5 uM nicotinamide, three week culture, control cultures 0.02%) [%]
O=C1CCc2c(ccc3ccccc23)O1 [Splitomicin]	increase in colony formation	about 30%	more than 2 fold	remarkable up-left shift	–	–	–
NC(=O)c1cccnc1 [Nicotinamide, nicotinamide]	–	–	–	–	180×10^4	34.6	4.11
